Measurements taken from patent US9259399B2, “Targeting CDK4 and CDK6 in cancer therapy” (Cornell University, priority 2007, dated 2016).
pIC50: −log10 of the molar value. “Also recorded” adds a separate entry of the source. Residues, ends and D or L forms follow the SMILES beside them. *: point of attachment. Cbz = O=C(OCc1ccccc1)*; CH2F = FC*

What was measured:
CDK4 and CDK6 [1] = experiment: Phase I/II clinical trial in multiple myeloma; type: in vivo; settings: within the tolerable dose in humans; preliminary data
CDK4 and CDK6 [2] = settings: cited from earlier work
HMCLs, including MM1.S = experiment: BrdU-uptake and DNA content (cell cycle) in human myeloma cell lines; type: cell-based; settings: for proportion of cells in S phase: PD 0332991 0.25 μM 24 h
Protocol: Cells were incubated with 5-bromo-2-deoxyuridine (BrdU, 5 μg/ml; Sigma) at 37° C. for 30 min (HMCLs) or 16 h (BMM cells). Cells were fixed with 70% ethanol overnight at 4° C., incubated with 0.4 mg/ml pepsin for 20 min at room temperature and 2N HCl for 10 min at 37° C. Samples were washed with 50 mM sodium borate (pH 8.5) and then 0.1% BSA/PBS. To detect BrdU, cells were incubated with a FITC-conjugated anti-BrdU mouse mAb (Roche Diagnostics, Pleasanton, Calif.) for 30 min at room temperature. For DNA content analysis, cells were incubated further with 50 μg/ml propidium iodide and 100 U/ml ribonuclease A (Sigma) for 30 min at 37° C. Samples were analyzed by flow cytometry.

MM1.S cells = experiment: Apoptosis pathway in myeloma cells (caspase/PARP cleavage, Bcl-2 family mRNA and protein, Smac release); type: cell-based, human
Protocol: Total RNA was isolated using the TRIzol reagent (Invitrogen). […] Reactions were carried out in triplicate in the ABI PRISM 7900 HT Sequence Detection System. The relative amount of products was determined by the comparative Ct method according to the manufacturer's instructions. Viable cells were obtained by Ficoll density centrifugation (GE Healthcare, Piscataway, N.J.). Cytosolic and mitochondrial fractions were isolated as described (Yang et al., 1997). Whole cells or purified mitochondria were lysed in a buffer containing 10 mM Tris-HCl, pH 7.5, 150 mM NaCl, 5 mM EDTA, 1% Triton X-100, and protease inhibitors. For detection of phosphorylated Stat3, cells were lysed in a buffer containing 20 mM Tris, pH 7.5, 150 mM NaCl, 1 mM EDTA, 1 mM EGTA, 1% Triton X-100, 2.5 mM sodium pyrophosphate, 1 mM β-glycerophosphate, 1 mM Na3VO4, and protease inhibitors. Immunoblotting was performed as described in Huang et al. (2004). Signals were developed with the SuperSignal West Femto Maximum Sensitivity Substrate (Pierce Biotechnology, Rockford, Ill.). For immunoprecipitation, lysate (50 μg of protein) was precleared with 20 μl of Protein G PLUS-agarose beads (Santa Cruz Biotechnology, Santa Cruz, Calif.) and incubated with rabbit anti-Bim, anti Bcl-XL (Cell signaling Technology), anti-Mcl1 (Santa Cruz), anti-Bak (Sigma) or mouse anti-Bcl-2 (DakoCytomation, Carpinteria, Calif.) overnight at 4° C. The immunocomplexes were collected by incubation with Protein G PLUS-agarose beads (Santa Cruz) and centrifugation. These immunocomplex samples were then analyzed by immunoblotting.

[3] = test system: MM1.S and MM1.R human myeloma cell lines; experiment: Cytotoxic killing of myeloma cell lines (viability, mitochondrial membrane depolarization)
[4] = test system: CAG NOD/SCID myeloma model; settings: 150 mg/kg; by day 9; cited from earlier work
IL-6Rα, gp130, Stat3 = experiment: IL-6 signaling in myeloma cells (surface IL-6Rα, gp130, p-Stat3); type: cell-based, human; settings: for expression of surface IL-6Rα (gp80): PD 0332991 0.25 μM, bortezomib 4 nM; for surface gp130: PD 0332991, bortezomib 4 nM, or both
Protocol: Viable cells were obtained by Ficoll density centrifugation (GE Healthcare, Piscataway, N.J.). Cytosolic and mitochondrial fractions were isolated as described (Yang et al., 1997). Whole cells or purified mitochondria were lysed in a buffer containing 10 mM Tris-HCl, pH 7.5, 150 mM NaCl, 5 mM EDTA, 1% Triton X-100, and protease inhibitors. For detection of phosphorylated Stat3, cells were lysed in a buffer containing 20 mM Tris, pH 7.5, 150 mM NaCl, 1 mM EDTA, 1 mM EGTA, 1% Triton X-100, 2.5 mM sodium pyrophosphate, 1 mM β-glycerophosphate, 1 mM Na3VO4, and protease inhibitors. Immunoblotting was performed as described in Huang et al. (2004). Signals were developed with the SuperSignal West Femto Maximum Sensitivity Substrate (Pierce Biotechnology, Rockford, Ill.).

[5] = test system: at least thirty-eight other types of kinases, including CDK2; settings: at concentrations below 5 μM, at least 38 other kinases; cited from earlier work
[6] = test system: retinoblastoma (Rb)-positive tumor cells; settings: cited from earlier work
[7] = test system: primary CD138+ human BM myeloma (BMM) cells; experiment: Killing of primary myeloma cells co-cultured with HS-5 stromal cells; settings: for reduction of live BMM cells: 24 hours ex vivo, PD 0332991 1-2 μM
[8] = test system: myeloma, AML and solid tumor xenograft; settings: cited from earlier work
Luc+GFP+MM1.S cells = experiment: NOD/SCID xenograft human myeloma model (bioluminescence imaging); type: in vivo, NOD/SCID mice; settings: for MMD in human myeloma cells vs mouse BM cells in vivo: bortezomib 0.25 mg/kg, with or without PD 0332991 150 mg/kg pretreatment; for tumor development (BLI): day 8, PD 0332991 150 mg/kg daily 3 days, bortezomib 0.25 mg/kg days 4 and 7
CDK4/6 = settings: mantle cell lymphoma and acute myeloid leukemia cells ex vivo; cited from earlier work
[9] = test system: human osteoclast cultures; experiment: Osteoclast formation from bone marrow cells of multiple myeloma patients; type: cell-based
Protocol: Non-adherent mononuclear bone marrow cells from multiple myeloma patients were cultured in the presence of macrophage colony stimulating factor (M-CSF) and Receptor Activator for Nuclear Factor κ[…] (RANKL) for three weeks.

Q: Which results are given for `CC(=O)c1c(C)c2cnc(Nc3ccc(N4CCNCC4)cn3)nc2n(C2CCCC2)c1=O` [PD 0332991, 6-acetyl-8-cyclopentyl-5-methyl-2-[5-piperazin-1-yl-pyridin-2-ylamino)-8H-pyrido[2,3-d]pyrimidin-7-one]?
A: inhibition of CDK4 and CDK6 and tumor cell division in patients (CDK4 and CDK6 [1]): completely inhibits; pIC50 (CDK4 and CDK6 [2]; freshly isolated primary human BMM cells and HMCLs ex vivo, read-out: IC50, inhibition of CDK4 and CDK6): 7.22; cell cycle outcome of CDK4/CDK6 inhibition (CDK4 and CDK6 [2]; primary BMM cells and HMCLs): exclusive G1 arrest unaccompanied by apoptosis; also recorded: exclusive G1 arrest in the absence of apoptosis; time G1 arrest and synchronous S phase entry were maintained in the absence of apoptosis (HMCLs, including MM1.S; MM1.S cells cultured with PD 0332991): at least 6 days; G1 arrest (HMCLs, including MM1.S; PD 0332991 0.25 μM): complete G1 arrest; also recorded: marked accumulation of G1 cells; proportion of cells in S phase (HMCLs, including MM1.S; 12 hours after removal): 65%; proportion of cells in S phase (HMCLs, including MM1.S; 18 hours after removal): 67%; activation of caspase-8 by bortezomib after prior PD 0332991 treatment (MM1.S cells): similarly augmented; Noxa mRNA and protein (MM1.S cells; following PD 0332991-induced G1 arrest): no longer detectable; killing of Dex-resistant MM1.R cells by low dose bortezomib after PD 0332991 ([3]; MM1.R cells, 24 hours): virtual eradication of cells; bortezomib killing after prior G1 arrest ([3]; PD 0332991 24 h, then bortezomib at high dose (250 nM) for 1 h, analysed 6 h later): profoundly enhanced; killing by low dose bortezomib added after PD 0332991 vs concurrently ([3]; bortezomib 2-6 nM added 24 or 48 hours after PD 0332991): greater; MMD and viability, bortezomib added upon removal of PD 0332991 vs unsynchronized cells ([3]; bortezomib 4 or 6 nM, continuous): greater MMD and loss of viability; bortezomib killing during synchronous G1-S transition ([3]; bortezomib pulse at 4 hours post PD 0332991 removal): augmented further; MMD and cytotoxic killing by low dose dexamethasone after G1 arrest ([3]; dexamethasone 5-50 nM): augmented; tumor burden [4]: reduced tumor burden profoundly; Stat3 protein (IL-6Rα, gp130, Stat3): reduction of Stat3 protein; expression of surface IL-6Rα (gp80) (IL-6Rα, gp130, Stat3): virtually eliminated; surface gp130 (IL-6Rα, gp130, Stat3): only modestly; activity against other kinases [5]: does not cross react; also recorded: little or no activity; anti-proliferative activity [6]: potent anti-proliferative agent; reduction of live BMM cells [7]: greater; sensitization of BMM cells from bortezomib-refractory patients (MM10) ([7]; PD 0332991 pretreatment 4 hours): sufficient to sensitize; sensitization of other bortezomib-refractory BMM cells (MM 8, MM 9) ([7]; PD 0332991 pretreatment 24 hours): susceptible to bortezomib killing; bortezomib killing after PD 0332991 pretreatment ([7]; pretreatment 4-24 hours): markedly augmented; myeloma tumor growth upon discontinuation ([8]; after discontinuation of PD 0332991): resumed upon discontinuation; tumor growth ([8]; myeloma, AML and solid tumor xenograft models): suppressed tumor growth; MMD in human myeloma cells vs mouse BM cells in vivo (Luc+GFP+MM1.S cells): augmented; tumor development (BLI) (Luc+GFP+MM1.S cells): only modestly reduced; inhibition of CDK4/6 (CDK4/6): effectively inhibited; pIC50 ([9]; Homo sapiens, Osteoclast, 504 h, treatment for 3 weeks): 7.30; time course of treatment on osteoclast formation ([9]; first week, but not second or third week): sufficient to inhibit osteoclast formation

Q: Which “killing by PD-B in the presence of pan-caspase inhibitor” value (MM1.S cells) does the source give for `COC(=O)C[C@H](NC(=O)[C@H](C)NC(=O)[C@@H](NC(=O)OCc1ccccc1)C(C)C)C(=O)CF` [ZVAD-FMK] (Cbz-Val-Ala-Asp(OMe)-CH2F) here?
A: The value was “completely inhibited”.

Q: For `CC(C)C[C@H](NC(=O)[C@H](Cc1ccccc1)NC(=O)c1cnccn1)B(O)O` [bortezomib], which “cell cycle effect of bortezomib alone” value (HMCLs, including MM1.S; bortezomib 6 nM alone) is on record?
A: Its value is “striking loss of cells in the S phase”.

Q: And the “TRAIL mRNA” value (MM1.S cells; q-RT-PCR)?
A: The value was “marginal increase”.

Q: What about the “Bim and MCL-1 mRNAs” value (MM1.S cells; q-RT-PCR, bortezomib 4 nM 12 h, with or without PD 0332991 0.25 μM 24 h) of the same compound?
A: The value was “coordinately elevated”.

Q: And the “expression of surface IL-6Rα (gp80)” value (IL-6Rα, gp130, Stat3)?
A: Its value is “did not vary”.

Q: And the “surface gp130” value (IL-6Rα, gp130, Stat3)?
A: Its value is “only modestly”.

Q: What about the “reduction of live BMM cells” value [7] of the same compound?
A: The value was “greater”.

Q: And the “MMD in human myeloma cells vs mouse BM cells in vivo” value (Luc+GFP+MM1.S cells)?
A: The value was “differentially induced”.

Q: And the “tumor development (BLI)” value (Luc+GFP+MM1.S cells)?
A: The value was “only modestly reduced”.
